From patent publication US20110014196A1, “Drug Transfer into Living Cells” (priority 2007, published 2011)

Experiments:
Type in all cases: biochemical
[1] = system: HaloTag protein available from Promega Corporation; assay: Protein trimer formation with HaloTag protein by SDS-PAGE; settings: 4 h incubation at rt, coomassie staining
Experimental: To a solution of N-tris[(2-carboxyethoxy)methyl]methyl nile red-oxyacetamide (86) (6 mg, 0.0083 mmol) and 18-chloro-3,6,9,12-tetraoxaoctadecan-1-amine (10 mg, 0.029 mmol, 3.5 eq) in DMF (1 mL) are successively added pyridine (5 μL, 0.058 mmol, 7 eq), HOBT (1 M in NMP, 8.3 μL, 0.0083 mmol, 1 eq) and EDC (6 mg, 0.029 mmol, 3.5 eq) at rt. The resulting mixture is stirred overnight. The solvent is evaporated under vacuum and compound (100) isolated by reversed phase HPLC on a C18 column using a linear gradient of water:acetonitrile (from 95:5 to 20:80 in 20 min, 0.08% TFA). The structural ability of compound (100) to trigger the formation of a protein trimer is confirmed by in vitro experiments using the fusion protein H2. 10 μL of a 70 μM solution of HaloTag protein available from Promega Corporation and 1.8 μL of a 230 μM solution of compound (100) is added to 3.2 μL of a solution of 50 mM Tris-HCl pH 7.5; 100 mM NaCl; 0.1% Tween20; 1 mM DTT. Following a 4 h incubation at rt, 15 μL of a solution of 100 mM Tris-HCl pH 6.8; 2% SDS; 35% glycerol; 10 mM EDTA; 20 mM DTT is added. Then the mixture is boiled for 5 min at 95° C. After cooling to rt, 25 μL of this solution is loaded on a 4-20% linear gradient SDS-PAGE gel. After electrophoresis, the proteins are coomassie stained in gel to visualize protein trimer.

[2] = system: fusion protein CLIP-FRB and the fusion protein SNAP-FKBP; assay: Protein dimer formation with CLIP-FRB and SNAP-FKBP by SDS-PAGE; settings: overnight incubation at 4° C., coomassie staining
Experimental: The structural ability of compound (104) and (105) to trigger the formation of a protein dimer is confirmed by in vitro experiments using the fusion protein CLIP-FRB and the fusion protein SNAP-FKBP. 1 μL of a 591 μM solution of FKBP protein fused to a variant of AGT available from Covalys as SNAP26, 10 μL of a 52.9 μM solution of FRB protein fused to a variant of AGT available from Covalys as CLIP and 1 μL of a 62.5 μM solution of mixture of compounds (104) and (105) is added to 3 μL of a solution of 50 mM Tris-HCl pH 7.5; 100 mM NaCl; 0.1% Tween20; 1 mM DTT. Following overnight incubation at 4° C., 15 μL of a solution of 100 mM Tris-HCl pH 6.8; 2% SDS; 35% glycerol; 10 mM EDTA; 20 mM DTT is added. Then the mixture is boiled for 5 min at 95° C. After cooling to rt, 25 μL of this solution is loaded on a 4-20% linear gradient SDS-PAGE gel. After electrophoresis, the proteins are coomassie stained in gel to visualize protein dimer.

fusion protein CLIP-FRB = assay: Protein trimer formation with CLIP-FRB by SDS-PAGE; settings: 4 h incubation at rt, coomassie staining
Experimental: To a solution of N-tris[(2-carboxyethoxy)methyl]methyl nile red-oxyacetamide (86) (10 mg, 0.014 mmol) and BC-PEG12-NH2 (98) (41 mg, 0.049 mmol, 3.5 eq) in DMF (1 mL) are successively added DIPEA (8.1 μL, 0.049 mmol, 3.5 eq), HOBT (1 M in NMP, 14 μL, 0.014 mmol, 1 eq) and EDC (10 mg, 0.049 mmol, 3.5 eq) at rt. The resulting mixture is stirred overnight. The solvent is evaporated under vacuum and compound (99) isolated by reversed phase HPLC on a C18 column using a linear gradient of water:acetonitrile (from 95:5 to 20:80 in 20 min, 0.08% TFA). The structural ability of compound (99) to trigger the formation of a protein trimer is confirmed by in vitro experiments using the fusion protein CLIP-FRB. 20 μL of a 52.9 μM solution of FRB protein fused to a variant of AGT available from Covalys under the trade name CLIP and 2 μL of a 100 μM solution of compound (99) is added to 3 μL of a solution of 50 mM Iris-HCl pH 7.5; 100 mM NaCl; 0.1% Tween20; 1 mM DTT. Following a 4 h incubation at rt, 15 μL of a solution of 100 mM Tris-HCl pH 6.8; 2% SDS; 35% glycerol; 10 mM EDTA; 20 mM DTT is added. Then the mixture is boiled for 5 min at 95° C. After cooling to rt, 25 μL of this solution is loaded on a 4-20% linear gradient SDS-PAGE gel. After electrophoresis, the proteins are coomassie stained in gel to visualize protein trimer.

[3] = system: FKBP protein fused to a variant of AGT available from Covalys as SNAP26 (SNAP-FKBP); assay: Reactivity with FKBP-AGT fusion protein: protein trimer formation by SDS-PAGE and coomassie staining; settings: 4 h incubation at rt; SDS-PAGE, coomassie staining
Experimental: 1 μL of a 591 μM solution of FKBP protein fused to a variant of AGT available from Covalys as SNAP26 and 1 μL of a 100 μM solution of compound (89), (90), (91), (92) or (96) are added to 8 μL of a solution of 50 mM Tris-HCl pH 7.5; 100 mM NaCl; 0.1% Tween20; 1 mM DTT. Following a 4 h incubation at rt, 15 μL of a solution of 100 mM Tris-HCl pH 6.8; 2% SDS; 35% glycerol; 10 mM EDTA; 20 mM DTT is added. The mixture is boiled for 5 min at 95° C. After cooling to rt, 25 μL of this solution is loaded on a 4-20% linear gradient SDS-PAGE gel. After electrophoresis, the proteins are coomassie stained in gel to visualize protein trimer.

Sequence of FKBP protein fused to a variant of AGT available from Covalys as SNAP26 (SNAP-FKBP) (P16455 1-182 C62A/K125A/A127T/R128A/G131K/G132T/M134L/R135S/C150S/N157G/S159E limits assumed): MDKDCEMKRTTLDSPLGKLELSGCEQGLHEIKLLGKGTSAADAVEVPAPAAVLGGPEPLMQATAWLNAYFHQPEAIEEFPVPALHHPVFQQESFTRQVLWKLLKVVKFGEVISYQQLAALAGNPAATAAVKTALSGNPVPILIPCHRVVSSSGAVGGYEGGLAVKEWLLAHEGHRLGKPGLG
Sequence of fusion protein CLIP-FRB (P16455 1-182 with the stated changes limits assumed): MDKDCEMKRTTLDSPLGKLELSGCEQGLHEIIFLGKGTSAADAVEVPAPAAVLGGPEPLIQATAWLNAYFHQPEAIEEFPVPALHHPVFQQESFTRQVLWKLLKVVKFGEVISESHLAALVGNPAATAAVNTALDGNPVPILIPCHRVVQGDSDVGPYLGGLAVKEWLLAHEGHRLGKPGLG

Molecule | structural ability to trigger the formation of a protein trimer [3] | further results
CCN(CC)c1ccc2nc3c4cc(OCC(=O)NC(COCCC(=O)NCCOCCOCCOCCOCCCCCCCl)(COCCC(=O)NCCOCCOCCOCCOCCCCCCCl)COCCC(=O)NCCOCCOCCOCCOCCCCCCCl)ccc4c(=O)cc-3oc2c1 [Compound 100, N-Tris-{[2-(halo-PEG4-NH-carbonyl)ethoxyl]methyl}methyl nile red-oxyacetamide] | – | structural ability to trigger the formation of a protein trimer [1]: confirmed
CN(C)c1ccc2c(-c3ccc(C(=O)NC(CCC(=O)NCc4ccc(COc5nc(N)nc6[nH]cnc56)cc4)C(=O)NCc4ccc(COc5nccc(N)n5)cc4)cc3C(=O)[O-])c3ccc(N(C)C)cc3[o+]c2c1 (centres unmarked) [Compound 104, N5-{4-[(2-amino-9H-purin-6-yloxy)methyl]benzyl}-N1-{4-[(4-aminopyrimidin-2-yloxy)methyl]benzyl}-2-tetramethylrhodamine-5-carboxamido-pentanediamide] | – | structural ability to trigger the formation of a protein dimer [2]: confirmed
N-Tris-{[2-(BC-PEG12-NH-carbonyl)ethoxyl]methyl}methyl nile red-oxyacetamide [Compound 99] | – | structural ability to trigger the formation of a protein trimer (fusion protein CLIP-FRB): confirmed
N-Tris-{[2-(BG-PEG12-NH-carbonyl)ethoxy]methyl}methyl 3-[2-(2-maleimidoethyl)disulfanyl]propanoylamide [Compound 96] | confirmed | –
N-Tris-{[2-(BG-PEG12-NH-carbonyl)ethoxy]methyl}methyl 5-maleimido-pentanecarboxamide [Compound 92] | confirmed | –
N-Tris-{[2-(BG-PEG12-NH-carbonyl)ethoxy]methyl}methyl 7-(diethylamino)-coumarin-3-carboxamide [Compound 89] | confirmed | –
N-Tris-{[2-(BG-PEG12-NH-carbonyl)ethoxy]methyl}methyl ATTO-495-carboxamide [Compound 90] | confirmed | –
N-Tris-{[2-(BG-PEG12-NH-carbonyl)ethoxy]methyl}methyl nile red-oxyacetamide [Compound 91] | confirmed | –
